From patent US9127024B2 (Intrexon Corporation, priority 2013, dated 2015)

Molecular target: RheoSwitch® (CHO-K1_RS-1 cells, firefly Luciferase reporter) (Choristoneura fumiferana, UniProt O77240)
Assay: in vitro gene switch assay (fLUC Luciferase expression, potency screen)
Assay type: cell-based
Conditions: read-out: fLUC assay EC50, 24 hours with compound, 25 μM to 2.5 pM, figure in parentheses after a value not defined
Description: Gene switch assays are disclosed, e.g., in U.S. Pat. Nos. 8,076,517; 7,456,315; 7,304,161; and 6,258,603.
CHO-K1 cells were stably transfected with a plasmid (RS-1, FIG. 1) coding for firefly Luciferase (fLUC) under the control of the RheoSwitch® resulting in the stable cell line CHO-K1_RS-1. A master cell bank was created containing approximately 100 vials at 5×10^6 cells per vial. One vial of CHO-K1_RS-1 was thawed and cultured for two weeks prior to each in vitro potency screening.
Twenty-four (24) hours prior to treatment with the control and test compounds the CHO-K1_RS-1 cells were seeded into white-opaque 384-well cell culture plates at 3,600 cells per well in 30 μl of culture medium. The cells were incubated in a humidified CO2 incubator at 37° C. until compound treatment.
Compounds were prepared at 25 mM in 100% dry DMSO and stored at room temperature in sealed 1 ml tubes prior to subsequent dilution and assay. On the day of cell treatment the tubes containing the control and test compounds were sorted and the ligands transferred to a 96-well polypropylene plate for subsequent dilution. The compounds were diluted in 100% dry DMSO in an 8-point, 10-fold dilution series ranging from 25 mM to 2.5 nM using the Biomek FX automated liquid handler.
The diluted compounds were then transferred to each well of 384-well polypropylene plate in quadruplicate resulting in a single 384-well plate with four replicates of each compound dilution in a different quadrant of the plate. Each well on the 384-well plate received 20 μl of diluted compound. The 384-well plates containing diluted compound and the plates containing cells in culture were loaded onto the Biomek FX and 30 nl of compound was delivered to each well containing cells using a 384-pin V&P Scientific Pin Tool. The resulting 1000-fold dilution (30 nl to 30 μl) generated a final dosing range of 25 μM to 2.5 pM in 0.1% DMSO. Two replicate plates were produced to supply a dedicated plate for the Luciferase expression assay and the APH cell viability assay.
The cells were incubated with the compound for 24 hours in a humidified CO2 incubator at 37° C. Following incubation, the cells were assayed for Luciferase expression (fLUC assay) using the Steady Glo assay from Promega. Cells were equilibrated to room temperature for 15 minutes prior to reagent addition. Thirty micro liters (30 μl) of assay reagent was added to each well of the 384-well plate using the Biomek FX. The reagent was incubated with the cells for 10-120 minutes prior to reading on a Molecular Devices Spectramax L luminometer. The assay reagents were prepared as per the manufacturer's instructions.
The Luciferase expression data was normalized to the baseline signal from cells treated with DMSO alone. The ratio of signal from treated cells to vehicle-treated cells was plotted and non-linear regress was performed using Graph Pad Prism software. EC50, (log)EC50 and Hill slope data was generated. Reporter gene expression, e.g., luciferase expression, serves as a proxy for the expression of a gene of interest. See, e.g., US 2009/0123441 and WO 2011/119773.

RheoSwitch® (CHO-K1_RS-1 cells, firefly Luciferase reporter), sequence (O77240 1-513): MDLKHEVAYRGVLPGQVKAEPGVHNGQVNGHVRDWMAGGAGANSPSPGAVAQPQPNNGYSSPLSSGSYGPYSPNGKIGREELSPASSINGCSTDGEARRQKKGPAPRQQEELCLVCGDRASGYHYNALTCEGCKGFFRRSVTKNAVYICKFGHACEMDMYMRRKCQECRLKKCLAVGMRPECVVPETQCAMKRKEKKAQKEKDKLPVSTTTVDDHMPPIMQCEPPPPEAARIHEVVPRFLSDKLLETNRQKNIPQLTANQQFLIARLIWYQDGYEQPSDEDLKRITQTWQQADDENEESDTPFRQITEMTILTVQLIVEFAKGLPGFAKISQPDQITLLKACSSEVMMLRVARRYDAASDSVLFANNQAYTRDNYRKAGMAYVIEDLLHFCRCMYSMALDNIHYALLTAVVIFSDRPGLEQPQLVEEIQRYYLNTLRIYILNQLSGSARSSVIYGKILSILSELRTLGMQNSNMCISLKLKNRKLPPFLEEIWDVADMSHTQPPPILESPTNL

Row | SMILES | EC50 [nM]
1 | CCC(N(NC(=O)c1ccc2c(c1)B(O)OC2)C(=O)c1cc(C)cc(C)c1)C(C)(C)C (racemic) [Cpd. No. 51] | 432
2 | CCC(CF)N(NC(=O)c1ccc2c(c1C)OCCOB2O)C(=O)c1cc(C)cc(C)c1 (racemic) [Cpd. No. 82] | 2610
3 | Cc1cc(C)cc(C(=O)N(NC(=O)c2ccc3c(c2C)OCCOB3O)C(c2ccccc2)C(C)(C)C)c1 (racemic) [Cpd. No. 83, N′-(2,2-dimethyl-1-phenylpropyl)-N′-(3,5-dimethylbenzoyl)-1-hydroxy-6-methyl-3,4-dihydro-1H-benzo[c][1,5,2]dioxaborepine-7-carbohydrazide] | 65.9
4 | CCC(c1ccccc1)N(NC(=O)c1ccc(B(O)O)cc1F)C(=O)c1cc(C)cc(C)c1 (racemic) [compound 18] | 203
5 | CCC(c1ccccc1)N(NC(=O)c1ccc(B(O)O)cc1F)C(=O)c1cc(C)cc(C)c1 (racemic) [compound 19] | 258
6 | CCC(N(NC(=O)c1cccc(OC)c1C)C(=O)c1cccc(B(O)O)c1)C(C)(C)C (racemic) [compound 32] | 2880
7 | CCC(N(NC(=O)c1cccc(OC)c1C)C(=O)c1cc(F)cc(B(O)O)c1)C(C)(C)C (racemic) [compound 35] | 2600
8 | CCC(N(NC(=O)c1cccc(OC)c1C)C(=O)c1cc(B(O)O)cc([N+](=O)[O-])c1)C(C)(C)C (racemic) [compound 36] | > 25000
9 | CCC(N(NC(=O)c1cccc(OC)c1C)C(=O)c1cc(OC)cc(B(O)O)c1)C(C)(C)C (racemic) [compound 37] | 2110
10 | CCCC(N(NC(=O)c1cccc(B2OC(C)(C)C(C)(C)O2)c1C)C(=O)c1cccc(B2OC(C)(C)C(C)(C)O2)c1C)C(C)(C)C (racemic) [compound 41] | ~14000
11 | CCCC(N(NC(=O)c1cccc(B2OC(C)(C)C(C)(C)O2)c1C)C(=O)c1cc(C)cc(C)c1)C(C)(C)C (racemic) [compound 44] | 250
12 | CCC(N(NC(=O)c1cccc(B2OC(C)(C)C(C)(C)O2)c1C)C(=O)c1cc(OC)c(C)c(OC)c1)C(C)(C)C (racemic) [compound 47] | 1640
13 | CCCC(N(NC(=O)c1cccc(B2OC(C)(C)C(C)(C)O2)c1C)C(=O)c1cc(OC)ccc1OC)C(C)(C)C (racemic) [compound 48] | 22200
14 | Cc1cc(C)cc(C(=O)N(NC(=O)c2cccc(B(O)O)c2Cl)C(C)(C)C)c1 [Cpd. No. 3] | 1660
15 | CCC[C@@H](N(NC(=O)c1cccc(B(O)O)c1F)C(=O)c1cc(C)cc(C)c1)C(C)(C)C [Cpd. No. 6] | 92.7
16 | Cc1cc(C)cc(C(=O)N(NC(=O)c2ccc(B(O)O)cc2)C(C)(C)C)c1 [Cpd. No. 7] | 1010
17 | CCC[C@@H](N(NC(=O)c1ccc(B(O)O)cc1)C(=O)c1cc(C)cc(C)c1)C(C)(C)C [Cpd. No. 8] | 103
18 | Cc1cc(C)cc(C(=O)N(NC(=O)c2ccc(B(O)O)c(F)c2)C(C)(C)C)c1 [Cpd. No. 23, (4-(2-(tert-butyl)-2-(3,5-dimethylbenzoyl) hydrazinecarbonyl)-2-fluorophenyl)boronic acid] | 1800
19 | CCC[C@@H](N(NC(=O)c1c(F)cc(B(O)O)cc1F)C(=O)c1cc(C)cc(C)c1)C(C)(C)C [Cpd. No. 24, (R)-(4-(2-(3,5-dimethylbenzoyl)-2-(2,2-dimethylhexan-3-yl)hydrazinecarbonyl)-3,5-difluorophenyl)boronic acid] | 85.7
20 | Cc1cc(C)cc(C(=O)N(NC(=O)c2c(F)cc(B(O)O)cc2F)C(C)(C)C)c1 [Cpd. No. 25, (4-(2-(tert-butyl)-2-(3,5-dimethylbenzoyl) hydrazinecarbonyl)-3,5-difluorophenyl)boronic acid] | 796
21 | CC[C@@H](N(NC(=O)c1ccc(B(O)O)c(OCCOC)c1C)C(=O)c1cc(C)cc(C)c1)C(C)(C)C [Cpd. No. 26, (R)-(4-(2-(3,5-dimethylbenzoyl)-2-(2,2-dimethylpentan-3-yl)hydrazinecarbonyl)-2-(2-methoxyethoxy)-3-methylphenyl)boronic acid] | 1670
22 | CCC[C@@H](N(NC(=O)c1ccc(CCCB(O)O)c(OC)c1C)C(=O)c1cc(C)cc(C)c1)C(C)(C)C [Cpd. No. 27, (R)-(3-(4-(2-(3,5-dimethylbenzoyl)-2-(2,2-dimethylhexan-3-yl)hydrazinecarbonyl)-2-methoxy-3-methyl-phenyl)propyl)boronic acid] | 270
23 | CCC[C@@H](N(NC(=O)c1ccc(CCCB(O)O)c(OC(F)F)c1C)C(=O)c1cc(C)cc(C)c1)C(C)(C)C [Cpd. No. 28] | 57.7
24 | CC[C@@H](N(NC(=O)c1cccc(OC)c1C)C(=O)c1cc(C)cc(B(O)O)c1)C(C)(C)C [Cpd. No. 33, (R)-(3-(1-(2,2-dimethylpentan-3-yl)-2-(3-methoxy-2-methylbenzoyl)hydrazinecarbonyl)-5-methylphenyl)boronic acid] | 191
25 | CCCCB1OCc2ccc(C(=O)NN(C(=O)c3ccccc3)C(C)(C)C)c(F)c21 [Cpd. No. 64, N′-benzoyl-N′-(tert-butyl)-1-butyl-7-fluoro-1,3-dihydrobenzo[c][1,2]oxaborole-6-carbohydrazide] | > 25000
26 | Cc1cc(C)cc(C(=O)N(NC(=O)c2ccc3c(c2F)COB3O)C(C)(C)C)c1 [Cpd. No. 65, N′-(tert-butyl)-N′-(3,5-dimethylbenzoyl)-4-fluoro-1-hydroxy-1,3-dihydrobenzo[c][1,2]oxaborole-5-carbohydrazide] | 3180
27 | [2H]C([2H])([2H])c1cc(C(=O)N(NC(=O)c2ccc3c(c2F)COB3O)C(C)(C)C)cc(C([2H])([2H])[2H])c1 [Cpd. No. 66, N′-(3,5-bis(methyl-d3)benzoyl)-N′-(tert-butyl)-4-fluoro-1-hydroxy-1,3-dihydrobenzo[c][1,2]oxaborole-5-carbohydrazide] | 3270
28 | Cc1cc(C)cc(C(=O)N(NC(=O)c2ccc3c(c2C)OB(O)CCC3)C(C)(C)C)c1 [Cpd. No. 69] | 203
29 | CCC[C@@H](N(NC(=O)c1ccc2c(c1C)OB(O)CCC2)C(=O)c1cc(C)cc(C)c1)C(C)(C)C [Cpd. No. 70, (R)—N′-(3,5-dimethylbenzoyl)-N′-(2,2-dimethylhexan-3-yl)-2-hydroxy-9-methyl-2,3,4,5-tetrahydrobenzo[f][1,2]oxaborepine-8-carbohydrazide] | 40.6

Same assay, conditions: read-out: fLUC assay EC50 Run 1, 24 hours with compound, Run 1

Row | SMILES | EC50 [nM]
30 | CC[C@@H](N(NC(=O)c1ccc(B(O)O)cc1F)C(=O)c1cc(C)cc(C)c1)C(C)(C)C [Cpd. No. 85, (R)-(4-(2-(3,5-dimethylbenzoyl)-2-(2,2-dimethylpentan-3-yl)hydrazine-1-carbonyl)-3-fluorophenyl)boronic acid] | 69.4
31 | CC[C@@H](N(NC(=O)c1ccc(COC)c(B(O)O)c1F)C(=O)c1cc(C)cc(C)c1)C(C)(C)C [Cpd. No. 86, (R)-(3-(2-(3,5-dimethylbenzoyl)-2-(2,2-dimethylpentan-3-yl)hydrazine-1-carbonyl)-2-fluoro-6-(methoxymethyl)phenyl)boronic acid] | 48.8
32 | CC[C@@H](N(NC(=O)c1ccc(COC)c(B2OC(C)(C)C(C)(C)O2)c1F)C(=O)c1cc(C)cc(C)c1)C(C)(C)C [Cpd. No. 87, (R)-N′-(3,5-dimethylbenzoyl)-N′-(2,2 dimethylpentan-3-yl)-2-fluoro-4-(methoxymethyl)-3-(4,4,5,5-tetramethyl-1,3,2-dioxaborolan-2-yl)benzohydrazide] | 47.6

Same assay, conditions: read-out: fLUC assay EC50 Run 2, 24 hours with compound, Run 2

Row | SMILES | EC50 [nM]
33 | CC[C@@H](N(NC(=O)c1ccc(B(O)O)cc1F)C(=O)c1cc(C)cc(C)c1)C(C)(C)C [Cpd. No. 85, (R)-(4-(2-(3,5-dimethylbenzoyl)-2-(2,2-dimethylpentan-3-yl)hydrazine-1-carbonyl)-3-fluorophenyl)boronic acid] | 66.6
34 | CC[C@@H](N(NC(=O)c1ccc(COC)c(B(O)O)c1F)C(=O)c1cc(C)cc(C)c1)C(C)(C)C [Cpd. No. 86, (R)-(3-(2-(3,5-dimethylbenzoyl)-2-(2,2-dimethylpentan-3-yl)hydrazine-1-carbonyl)-2-fluoro-6-(methoxymethyl)phenyl)boronic acid] | 74.5
35 | CC[C@@H](N(NC(=O)c1ccc(COC)c(B2OC(C)(C)C(C)(C)O2)c1F)C(=O)c1cc(C)cc(C)c1)C(C)(C)C [Cpd. No. 87, (R)-N′-(3,5-dimethylbenzoyl)-N′-(2,2 dimethylpentan-3-yl)-2-fluoro-4-(methoxymethyl)-3-(4,4,5,5-tetramethyl-1,3,2-dioxaborolan-2-yl)benzohydrazide] | 96.4
